{"source": "paper PMC10065799", "about": "“High-throughput profiling of sequence recognition by tyrosine kinases and SH2 domains using bacterial peptide display” (eLife, 2023);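 also: log2 fold change in enrichment of variant over reference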", "data": [{"biological_target": "c-Src kinase domain (Homo sapiens, UniProt P12931)", "experiment": "pTyr-Var library bacterial peptide display kinase screen (enrichment scores)", "format": "biochemical", "conditions": "sheet \"Src\"; effect of the variant peptide relative to its reference peptide in the pTyr-Var library screen", "values": [{"sequence": "QMVGKYASSFM [AVPR2_Y124_M123K_YF]", "Screen": -1.364}, {"sequence": "DPLLTYLFPPK [LMNA_Y481_R482L]", "Screen": 2.327}, {"sequence": "LDFNEYFRFLN [HPRT1_Y198_D201Y_YF]", "Screen": 2.939}, {"sequence": "EFQLPYFNTVP [BMPR1A_Y457_M460T_YF]", "Screen": -0.7468}, {"sequence": "IGERTYGQVFK [CDK13_Y716_G714R_YF]", "Screen": -0.5578}, {"sequence": "NVADHYRVFKP [ATP6V0D2_Y271_G272R_YF]", "Screen": -3.184}, {"sequence": "KEKLCYVAPDF [ACTA1_Y220_L223P]", "Screen": -1.653}, {"sequence": "VDGSVYKLPPS [GCK_Y413_H416P]", "Screen": -1.181}, {"sequence": "KHCEDYVFSFN [DSC1_Y846_C848F_YF]", "Screen": 1.064}, {"sequence": "EGDGVYTLNNK [HP_Y125_E130K]", "Screen": 0.08373}, {"sequence": "IRSGIYFKPES [L2HGDH_Y102_H98R_YF]", "Screen": -1.512}, {"sequence": "QQMGTYGVRAA [ICAM2_Y260_R256Q]", "Screen": 0.6458}, {"sequence": "EWCSPYGLTPR [GRIN3B_Y601_R598C]", "Screen": 1.62}]}, {"biological_target": "c-Src kinase domain (Homo sapiens, UniProt P12931)", "experiment": "pTyr-Var library bacterial peptide display kinase screen (enrichment scores)", "format": "biochemical", "conditions": "sheet \"Src\"; variant peptide versus its reference peptide in the pTyr-Var library screen", "values": [{"sequence": "PPSELYFVKVD [TERT_Y707_P704S]", "Screen": -0.06532}, {"sequence": "FSCLPYRRLAF [SLC52A2_Y305_G306R_YF]", "Screen": -1.493}, {"sequence": "PLDGGYFTLQI [TP53_Y327_E326G]", "Screen": -1.493}, {"sequence": "SVMAEYGLFRA [VSX2_Y219_G223R_YF]", "Screen": -0.02483}]}, {"biological_target": "T1, c-Abl kinase domain (Mus musculus, UniProt P00520)", "T1 sequence (P00520 242-493 limits assumed)": "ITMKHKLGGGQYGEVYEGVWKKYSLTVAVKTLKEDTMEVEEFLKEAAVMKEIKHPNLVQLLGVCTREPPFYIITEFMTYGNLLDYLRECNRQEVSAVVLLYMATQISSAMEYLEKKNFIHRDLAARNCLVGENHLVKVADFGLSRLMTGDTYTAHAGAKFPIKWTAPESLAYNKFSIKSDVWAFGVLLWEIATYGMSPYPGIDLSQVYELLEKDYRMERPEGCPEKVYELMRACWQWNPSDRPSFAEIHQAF", "experiment": "pTyr-Var library bacterial peptide display kinase screen (enrichment scores)", "format": "biochemical", "conditions": "fig5-data2, sheet \"Abl\"; Screen for the variant/reference peptide pair, pTyr-Var library", "values": [{"sequence": "DVRQEYSGMIL [PLXND1_Y616_P617S]", "Screen": -0.7051}, {"sequence": "MLEVPYVDHNS [F10_Y384_R387H]", "Screen": 2.373}, {"sequence": "ASPKSYPSQKH [CAP2_Y316_T311A]", "Screen": 0.389}, {"sequence": "RLNCIYFKDQT [RS1_Y165_W163C_YF]", "Screen": 0.3384}, {"sequence": "DPEGAYTTRGG [EPHA3_Y779_A777G]", "Screen": -2.084}, {"sequence": "REGAKYVSHCA [ASS1_Y113_G117C]", "Screen": -1.469}, {"sequence": "PRLMLYNPTTF [EGFR_Y270_P266R_YF]", "Screen": -1.245}, {"sequence": "RGRSTYFWPSP [GAGE12J_Y9_R13S_YF]", "Screen": 0.4744}, {"sequence": "SLNEEYAKNKT [MSH2_Y563_T564A]", "Screen": 0.808}, {"sequence": "EFITRYIDSLK [PSMA7_Y110_A112D_YF]", "Screen": -0.5363}, {"sequence": "EFTAGYNVKFD [GPX4_Y123_A120T]", "Screen": -0.6842}, {"sequence": "RSHRSYSCQVM [IGLL1_Y192_R189H]", "Screen": -0.4092}, {"sequence": "EIIPFYGMSSF [FNDC3B_Y175_T179S_YF]", "Screen": -1.124}, {"sequence": "IDAVCYFRMEN [NPHS2_Y194_I192V_YF]", "Screen": -2.251}, {"sequence": "LEIETYPRLLD [KRT12_Y429_R430P]", "Screen": 0.133}, {"sequence": "KGEDFYCVTRH [FHL1_Y149_C153R]", "Screen": -2.042}, {"sequence": "DKATEYIQFVR [MAX_Y70_M74V_YF]", "Screen": 0.6462}, {"sequence": "FRRITYFNWRH [PDE6B_Y556_H557Y_YF]", "Screen": 1.003}, {"sequence": "ENKGVYVPMSG [IVD_Y277_L279P]", "Screen": -1.069}, {"sequence": "RIDPDYMGRVR [IGSF9_Y81_V82M]", "Screen": 0.7055}, {"sequence": "GFKVRYATGSI [FGFR1_Y210_W213G_YF]", "Screen": 1.302}, {"sequence": "IGGHAYGDQFR [IDH1_Y135_R132G_YF]", "Screen": -1.313}]}, {"biological_target": "T1, c-Abl kinase domain", "experiment": "pTyr-Var library bacterial peptide display kinase screen (enrichment scores)", "format": "biochemical", "conditions": "sheet \"Abl\"; effect of variant peptide relative to its reference peptide in pTyr-Var library screen (enrichment)", "values": [{"sequence": "SVTFTYSPALN [TP53_Y126_C124Y_YF]", "Screen": 1.264}, {"sequence": "KPGVNYFFQVS [TTN_Y28165_R28168Q_YF]", "Screen": -1.428}, {"sequence": "LLKMMYLMLDN [STAT1_Y203_K201M]", "Screen": 0.1881}, {"sequence": "DVQNEYDSNHC [ZFYVE16_Y36_A35E]", "Screen": 2.88}, {"sequence": "HLQDEYDFKCK [STAT1_Y170_D165H]", "Screen": -0.7143}, {"sequence": "DTQNSYRCATS [TSC1_Y304_G305R]", "Screen": -1.491}, {"sequence": "IVRSLYEDPED [VHL_Y185_L188P]", "Screen": -2.672}, {"sequence": "EIASHYRHLLR [ZBTB46_Y14_T11A]", "Screen": -2.772}, {"sequence": "CVAARYMDMKG [WFIKKN2_Y93_V96M]", "Screen": -2.912}, {"sequence": "NGEDLYAGSTD [XRCC1_Y515_P514L]", "Screen": 3.605}, {"sequence": "TENAGYFFQVS [TTN_Y31721_R31724Q_YF]", "Screen": -1.788}, {"sequence": "DKPENYRRLDI [VHL_Y175_V170D]", "Screen": -0.4882}, {"sequence": "RRGMPYGGHGD [TGM1_Y312_R315H]", "Screen": 0.4767}, {"sequence": "KDHPDYKFQRR [SOX10_Y171_P175R_YF]", "Screen": -0.3891}]}]}
